According to ChEMBL document CHEMBL1138627, “1-Methyl and 1-(2-hydroxyalkyl)-5-(3-alkyl/cycloalkyl/phenyl/naphthylureido)-1H-pyrazole-4-carboxylic acid ethyl esters as potent human neutrophil chemotaxis inhibitors” (Bioorg Med Chem, 2009):

Key:
[1] = Cytotoxicity against human neutrophils assessed as LDH release; format: cell-based; set-up: concentration or dose not given beside the values; conditions: neutrophil
Neutrophil [2] = assay: Reduction of chemotaxis in human neutrophils assessed as inhibition of fMLP-OMe-induced cell migration pretreated 10 mins before fMLP-OMe challenge; format: functional, cell-based
Neutrophil [3] = assay: Reduction of chemotaxis in human neutrophils assessed as inhibition of IL8-induced cell migration pretreated 10 mins before IL8 challenge; format: functional, cell-based
Neutrophil [4] = assay: Inhibition of chemotaxis in human neutrophils assessed as reduction of fMLP-OMe-induced cell migration at 10 uM relative to control; format: functional
Mus musculus [5] = assay: Antiinflammatory activity against zymosan-induced peritonitis in Swiss mouse assessed as monocyte and lymphocyte content in peritoneal cavity at 50 mg/kg, po administered 1 hr before zymosan challenge measured after 4 hrs; format: functional
Mus musculus [6] = assay: Antiinflammatory activity against zymosan-induced peritonitis in Swiss mouse assessed as inhibition of granulocyte infiltration into peritoneal cavity at 50 mg/kg, po administered 1 hr before zymosan challenge measured after 4 hrs; format: functional; set-up: scale not given: the % may be the effect or the level left
Mus musculus [7] = assay: Antiinflammatory activity against zymosan-induced peritonitis in Swiss mouse assessed as protein concentration at 50 mg/kg, po administered 1 hr before zymosan challenge by spectrophotometry; format: functional
Mus musculus [8] = assay: Antiinflammatory activity against zymosan-induced peritonitis in Swiss mouse assessed as peritoneal protein concentration at 3 mg/kg, po administered 1 hr before zymosan challenge by spectrophotometry; format: functional
Mus musculus [9] = assay: Antiinflammatory activity against zymosan-induced peritonitis in Swiss mouse assessed as granulocyte content in peritoneal cavity lavage at 3 mg/kg, po administered 1 hr before zymosan challenge measured after 4 hrs; format: functional
Mus musculus [10] = assay: Antiinflammatory activity against zymosan-induced peritonitis in Swiss mouse assessed as monocyte and lymphocyte content in peritoneal cavity lavage at 3 mg/kg, po administered 1 hr before zymosan challenge measured after 4 hrs; format: functional
Mus musculus [11] = assay: Antiinflammatory activity against zymosan-induced peritonitis in Swiss mouse assessed as inhibition of granulocyte infiltration into peritoneal cavity at 3 mg/kg, po administered 1 hr before zymosan challenge measured after 4 hrs; format: functional; set-up: scale not given: the % may be the effect or the level left
Mus musculus [12] = assay: Antiinflammatory activity against zymosan-induced peritonitis in Swiss mouse assessed as inhibition of granulocyte infiltration into peritoneal cavity at 100 mg/kg, po administered 1 hr before zymosan challenge measured after 4 hrs; format: functional

IC50 (Neutrophil [2]; read-out: IC50) [nM] | IC50 (Neutrophil [3]) [pM] | SMILES | Activity [1] [%] | further results
0.43 |  | CCCC(O)Cn1ncc(C(=O)OCC)c1NC(=O)NCc1ccccc1 (stereo not drawn) | < 3 | 
120 |  | CCOC(=O)c1cnn(CC(O)CC)c1NC(=O)Nc1ccccc1F (stereo not drawn) | < 3 | 
12 | 9600 | CCOC(=O)c1cnn(CC(O)CC)c1NC(=O)Nc1cccc2ccccc12 (stereo not drawn) | < 3 | 
20 | 1000 | CCCC(O)Cn1ncc(C(=O)OCC)c1NC(=O)NC(C)C (stereo not drawn) | < 3 | 
2000 | 0.08 | CCOC(=O)c1cnn(CC(O)CC)c1NC(=O)N1CCN(Cc2ccccc2)CC1 (stereo not drawn) | < 3 | 
> 10 | 200 | CCOC(=O)c1cnn(CC(C)O)c1NC(=O)Nc1ccc(F)cc1 (stereo not drawn) | < 3 | inhibition at 10 µM (Neutrophil [4]): 55%
> 10 | 0.99 | CCOC(=O)c1cnn(CC(C)O)c1NC(=O)N1CCN(Cc2ccccc2)CC1 (stereo not drawn) | < 3 | inhibition at 10 µM (Neutrophil [4]): 63%
> 10 | 0.7 | CCOC(=O)c1cnn(CC(C)O)c1NC(=O)Nc1cccc(F)c1 (stereo not drawn) | < 3 | Activity (Mus musculus [5]): 23%; inhibition at 10 µM (Neutrophil [4]): 60%; Activity (Mus musculus [6]): 21%; Activity (Mus musculus [7]): 2.68%
77 | 1.8 | CCOC(=O)c1cnn(C)c1NC(=O)NC(C)C | < 3 | 
90 | 0.82 | CCOC(=O)c1cnn(CC(C)O)c1NC(=O)NC(C)C (stereo not drawn) | < 3 | 
9.8 | 0.97 | CCOC(=O)c1cnn(CC(C)O)c1NC(=O)Nc1cccc2ccccc12 (stereo not drawn) | < 3 | 
 | 10000 | CCOC(=O)c1cnn(CC(O)c2ccccc2)c1NC(=O)NCc1ccccc1 (stereo not drawn) |  | 
> 10 |  | CCOC(=O)c1cnn(CC(O)CC)c1NC(=O)NCc1ccccc1 (stereo not drawn) | < 3 | inhibition at 10 µM (Neutrophil [4]): 54%
15 | 0.54 | CCOC(=O)c1cnn(CC(C)O)c1NC(=O)NCc1ccccc1 (stereo not drawn) | < 3 | 
 | 14000 | CCOC(=O)c1cnn(CC(O)c2ccccc2)c1NC(=O)N1CCN(Cc2ccccc2)CC1 (stereo not drawn) |  | 
18 | 1300 | CCOC(=O)c1cnn(C)c1NC(=O)NCc1ccccc1 | < 3 | 
7.8 |  | CCOC(=O)c1cnn(CC(O)c2ccccc2)c1NC(=O)Nc1cccc2ccccc12 (stereo not drawn) | < 3 | 
 | 45000 | CCOC(=O)c1cnn(CC(O)c2ccccc2)c1NC(=O)Nc1ccccc1 (stereo not drawn) |  | 
 | 55000 | CCOC(=O)c1cnn(CC(O)c2ccccc2)c1NC(=O)NC(C)C (stereo not drawn) |  | 
3.2 | 1900 | CCOC(=O)c1cnn(CC(O)CC)c1NC(=O)Nc1ccc(F)cc1 (stereo not drawn) | < 3 | 
 |  | C[C@@H]1C[C@H]2[C@@H]3CCC4=CC(=O)C=C[C@]4(C)[C@@]3(F)[C@@H](O)C[C@]2(C)[C@@]1(O)C(=O)CO [DEXAMETHASONE] |  | protein concentration (Mus musculus [8]): 1.75 µg/mL; Activity (Mus musculus [9]): 81%; Activity (Mus musculus [10]): 20%; Activity (Mus musculus [11]): 35%
 |  | C/C=C/C[C@@H](C)[C@@H](O)[C@H]1C(=O)N[C@@H](CC)C(=O)N(C)CC(=O)N(C)[C@@H](CC(C)C)C(=O)N[C@@H](C(C)C)C(=O)N(C)[C@@H](CC(C)C)C(=O)N[C@@H](C)C(=O)N[C@H](C)C(=O)N(C)[C@@H](CC(C)C)C(=O)N(C)[C@@H](CC(C)C)C(=O)N(C)[C@@H](C(C)C)C(=O)N1C [CYCLOSPORINE] |  | IC50 (Neutrophil [2]): 0.047 nM
> 10 |  | CCOC(=O)c1cnn(CC(O)CC)c1NC(=O)NC(C)C (stereo not drawn) | < 3 | inhibition at 10 µM (Neutrophil [4]): 52%
1.1 | 90 | CCCC(O)Cn1ncc(C(=O)OCC)c1NC(=O)N1CCN(Cc2ccccc2)CC1 (stereo not drawn) | < 3 | 
0.19 | 360 | CCOC(=O)c1cnn(CC(O)CC)c1NC(=O)Nc1cccc(F)c1 (stereo not drawn) | < 3 | 
 |  | CCOC(=O)c1cnn(CC(O)c2ccccc2)c1NC(=O)Nc1cccc(F)c1 (stereo not drawn) |  | inhibition in vivo at 100 mg/kg (Mus musculus [12]): 33%
100 | 0.55 | CCOC(=O)c1cnn(CC(C)O)c1NC(=O)Nc1ccccc1F (stereo not drawn) | < 3 | Activity (Mus musculus [6]): 34%; protein concentration (Mus musculus [7]): 2.62 µg/mL
150 | 54.6 | CCOC(=O)c1cnn(C)c1NC(=O)N1CCN(Cc2ccccc2)CC1 | < 3 | 
